Consider three compounds from patent US20110038936A1, “SYSTEM AND METHOD FOR ELECTROSPUN DRUG LOADED BIODEGRADABLE CHEMOTHERAPY APPLICATIONS” (priority 2009, published 2011).

A word on the clearance: it is the rate of elimination divided by the concentration.

Converted amounts (≈) assume the structure as drawn.

For series [1] the following is noted: cited from earlier work.
The conditions of series [2]: in vivo; cited from earlier work.
Series [3] is described as follows: Capacity of drug loading of the electrospun polymer device. The format is physicochemical. The following applies: larger quantities cause supersaturation of the solution.
Description: With time, the solvent would evaporate leaving a crystallized non-homogenous mixture of polymer and drug.
The conditions of series [4]: intravenous infusion, doses 30 to 170 mg/m^2; cited from earlier work.

Consider `COc1ccccc1OCC(O)CO` (racemic) [Guaifenesin, (2RS)-3-(2-Methoxyphenoxy)propane-1,2-diol], for which the water solubility in series [1] is 50 mg/mL (≈ 252 mM). Besides, in series [2], the half-life entry is “approximately 1 hour”. Besides, the “maximum amount of drug loaded in the electrospun polymer device” value in series [3] is 5 wt %.
As for `C[C@]12CC[C@@H]3c4ccc(O)cc4CC[C@H]3[C@@H]1CC[C@@H]2O` [Beta-Estradiol, 17β-estradiol], in series [3], the “maximum amount of drug loaded in the electrospun polymer device” value is 1 wt %.
As to `O=NN(CCCl)C(=O)NCCCl` [BCNU], in series [4], the average terminal half-life was 22 min, the clearance is on record as 56 mL/min/kg and the “steady-state volume of distribution” value was 3.25 L/kg.
